Measurements as given in patent publication US20100004194A1, “USE OF ISOMALTULOSE IN FOOD PRODUCTS HAVING A REGENERATIVE EFFECT” (priority 2006, published 2010).
Entries after “also recorded” stand apart in the source; their conditions may differ.

Columns and labels:
[1] = 3-armed crossover study: respiratory quotient before, during and after physical exertion (bicycle ergometer, Wingate test) with test drinks; format: in vivo, human; settings: 21 male endurance athletes
Procedure: The effect of isomaltulose (Palatinose™) on the regulation of the metabolism before, during and after physical exertion was examined and compared with the consumption of maltodextrin or a placebo which has a non-glycaemic effect and is of equivalent sweetness.
The test was carried out as a 3-armed crossover study on 21 subjects. In each subject, the effect of a non-glycaemic drink (placebo=sweetened mineral water) was tested versus a drink containing maltodextrin versus isomaltulose.
The subjects were male endurance athletes with several years' training experience (VO2max>55 ml/kg KG) aged between 23 and 50.
In step ergometry on a bicycle (100 watts at the start; increased by 50 watts/3 min), performance was first determined in the range of from 70-75% of the maximum oxygen uptake. After a sufficient regeneration phase of at least 5 days, the first testing was carried out in randomised order. The testing was carried out in the morning, at the same time in each case, 3-4 hours after a standardised breakfast.
Standardised endurance exertion was first carried out on a bicycle ergometer at 70-75% of the VO2max over 90 min. […] The respiratory quotient (RQ) was determined at the moments −30, −15, 0, 15, 30, 45, 60, 75, 90 min before or during the exertion, immediately after completion of the Wingate test and also 3, 15, 30, 60 and 120 min after end of exertion. […]

[2] = Second meal effect crossover study: respiratory quotient over a test period including two meals and 30-min treadmill exertion; format: in vivo, human; settings: 20 subjects
Procedure: The test was a crossover study with 20 subjects. In each subject, the effect of isomaltulose vs. sucrose/glucose syrup was tested.
The test period comprised two meals into which the test substances were integrated: on the one hand a breakfast, which consisted of a drink (250 ml, 10% carbohydrates=25 g of test substance) and biscuits (approx. 140 g, also with 25 g of test substance), and on the other hand a lunch consisting of mini pizzas, an apple and a refreshment drink. The carbohydrate quantity, consumed per portion of shortpastry, of wheat starch of the flour was, at about 50-60 g carbohydrates, at the same level in all biscuit variants. Each test period comprised two postprandial phases.
The respiratory quotient was determined first at rest, then during the subsequent 30-min exertion at moderate intensity (treadmill uphill protocol 4 km/h 5% gradient), at the end of the 30-minute post-exertion phase and up to 4 hours after consumption of the second meal (the lunch).

OC[C@H]1O[C@H](OC[C@H]2OC(O)(CO)[C@@H](O)[C@@H]2O)[C@H](O)[C@@H](O)[C@@H]1O (stereo partly shown) [isomaltulose]
respiratory quotient (RQ) after the physical exertion versus immediately prior to the exertion (percentage change) ([1]; 250 ml drinks with 25 g carbohydrate 30 min prior, at start, after 45 min and after Wingate test (2x250 ml), 90 min at 70-75% VO2max): substantially equal to or even lower; also recorded: substantially equal | RQ throughout the test phase ([1]; isomaltulose drink compared with maltodextrin drink or placebo): lower RQ | RQ after consumption of the breakfast ([2]; breakfast drink with 25 g plus biscuits with 25 g test substance, versus sucrose/glucose syrup breakfast): lower than after the sucrose/glucose syrup breakfast | degree by which the RQ was lower after consumption of a second meal (lunch) ([2]; up to 4 hours after the lunch, versus sucrose/glucose syrup): maintained
